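Cultured in 96-well plates, cells were exposed to test compound for 48 hours across five concentrations. GI50 is the concentration that inhibits growth by half.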 Calls of active or inactive are those of the source. No stated cut-off is given here; in the data, active = GI50 up to about 1.1 µM and inactive = higher.
Experiments:
Experiment in all cases: NCI-60 cell line screen, 48 h
U-251 = tested on: U-251
SF-295 = tested on: SF-295
SR = tested on: SR
OVCAR-8 = tested on: OVCAR-8
COLO 205 = tested on: COLO 205
SW-620 = tested on: SW-620
SK-MEL-2 = tested on: SK-MEL-2
NCI-H226 = tested on: NCI-H226
SNB-19 = tested on: SNB-19
HCT-116 = tested on: HCT-116
HOP-62 = tested on: HOP-62
KM12 = tested on: KM12
NCI-H522 = tested on: NCI-H522
UACC-257 = tested on: UACC-257
BT-549 = tested on: BT-549
SF-539 = tested on: SF-539
M14 = tested on: M14
SK-MEL-5 = tested on: SK-MEL-5
T47D = tested on: T47D
MDA-MB-435 = tested on: MDA-MB-435

Compound | GI50 (U-251) | GI50 (SF-295) | GI50 (SR) | GI50 (OVCAR-8) | GI50 (COLO 205) | GI50 (SW-620) | GI50 (SK-MEL-2) | GI50 (NCI-H226) | GI50 (SNB-19) | GI50 (HCT-116) | GI50 (HOP-62) | GI50 (KM12) | GI50 (NCI-H522) | GI50 (UACC-257) | GI50 (BT-549) | GI50 (SF-539) | GI50 (M14) | GI50 (SK-MEL-5) | GI50 (T47D) | GI50 (MDA-MB-435)
Cc1cccc2nc3n(c12)C(=O)c1ccccc1-3 | > 100 µM (inactive) | 49.9 µM (inactive) | > 100 µM (inactive) | > 100 µM (inactive) | > 100 µM (inactive) | > 100 µM (inactive) | > 100 µM (inactive) | > 100 µM (inactive) | > 100 µM (inactive) | > 100 µM (inactive) | > 100 µM (inactive) | > 100 µM (inactive) | > 100 µM (inactive) | > 100 µM (inactive) | > 100 µM (inactive) | > 100 µM (inactive) |  |  |  | 
CC(C)c1ccc2nc3ccc(C(=O)NCCN4CCN(c5ccccc5)CC4)cn3c(=O)c2c1 | > 100 µM (inactive) | 2.22 µM (inactive) | 2.51 µM (inactive) | 4.33 µM (inactive) | 3.33 µM (inactive) | 8.49 µM (inactive) |  | > 100 µM (inactive) | > 100 µM (inactive) | 5.66 µM (inactive) | 6.31 µM (inactive) | 20.2 µM (inactive) | 5.58 µM (inactive) | 4.67 µM (inactive) | 6.3 µM (inactive) |  | 2.87 µM (inactive) | 2.58 µM (inactive) |  | 
[N-]=[N+]=NC(c1ccccc1)(c1ccccc1)c1ccccc1 | 15.8 µM (inactive) | 12.1 µM (inactive) |  | 17.3 µM (inactive) | 14.6 µM (inactive) | 17.7 µM (inactive) | 15.5 µM (inactive) | 17.3 µM (inactive) | 18.4 µM (inactive) | 16 µM (inactive) | 19.5 µM (inactive) | 18.2 µM (inactive) | 16.5 µM (inactive) | 16 µM (inactive) | 19.7 µM (inactive) | 16.9 µM (inactive) | 18.4 µM (inactive) | 13.8 µM (inactive) | 16 µM (inactive) | 19.1 µM (inactive)
CCOC(=O)Cn1c(=O)c2nc(SC)sc2n(-c2ccccc2)c1=S | 13.4 µM (inactive) | 32.5 µM (inactive) | > 100 µM (inactive) | 43.9 µM (inactive) | 42.1 µM (inactive) | 50.4 µM (inactive) | 17.5 µM (inactive) | 18.4 µM (inactive) | 13.4 µM (inactive) | 27.5 µM (inactive) | 19.9 µM (inactive) | 25.8 µM (inactive) | 68.1 µM (inactive) | > 100 µM (inactive) |  | 15.6 µM (inactive) | 32.5 µM (inactive) | > 100 µM (inactive) | 40.8 µM (inactive) | 64.6 µM (inactive)
COc1ccc2c(c1)CCCN1CCc3ccccc3C21 (stereo not drawn) | 28.4 µM (inactive) | 24.7 µM (inactive) | 20 µM (inactive) | 39.9 µM (inactive) | 22.4 µM (inactive) | 67.8 µM (inactive) | 40.5 µM (inactive) | 30.1 µM (inactive) | 42.6 µM (inactive) | 16.8 µM (inactive) | 37.9 µM (inactive) | 34.7 µM (inactive) | 52.1 µM (inactive) | 47.8 µM (inactive) |  | 28.6 µM (inactive) | 20.4 µM (inactive) | 33.8 µM (inactive) | 77.3 µM (inactive) | 21.7 µM (inactive)
O=c1[nH]c(NCc2cccnc2)nc2[nH]cnc12 | > 100 µM (inactive) | > 100 µM (inactive) |  | > 100 µM (inactive) | > 100 µM (inactive) | > 100 µM (inactive) | > 100 µM (inactive) | > 100 µM (inactive) | > 100 µM (inactive) | > 100 µM (inactive) | > 100 µM (inactive) | > 100 µM (inactive) | 41.4 µM (inactive) | > 100 µM (inactive) | > 100 µM (inactive) | > 100 µM (inactive) | > 100 µM (inactive) | > 100 µM (inactive) | > 100 µM (inactive) | > 100 µM (inactive)
O=C(OCc1ccccc1)N1CCCc2c(n(S(=O)(=O)c3ccccc3)c3ccccc23)C1 | > 100 µM (inactive) | 36.6 µM (inactive) | 49.1 µM (inactive) | > 100 µM (inactive) | > 100 µM (inactive) | > 100 µM (inactive) | > 100 µM (inactive) | > 100 µM (inactive) | > 100 µM (inactive) | > 100 µM (inactive) | > 100 µM (inactive) | > 100 µM (inactive) | 29.1 µM (inactive) | > 100 µM (inactive) | > 100 µM (inactive) | > 100 µM (inactive) | > 100 µM (inactive) | > 100 µM (inactive) | 14.2 µM (inactive) | 
COc1ccc2nc3n(c2c1)CCc1cc(OC)c(OC)cc1-3 | 60.8 µM (inactive) | 50.9 µM (inactive) |  | 41.6 µM (inactive) | 26.1 µM (inactive) | 71.3 µM (inactive) | > 100 µM (inactive) | 54.3 µM (inactive) | 99.5 µM (inactive) | 47.8 µM (inactive) | 58.2 µM (inactive) | 30 µM (inactive) | 32.2 µM (inactive) | 55 µM (inactive) | 30 µM (inactive) | 88.9 µM (inactive) | 39.9 µM (inactive) | 18.7 µM (inactive) | 34.6 µM (inactive) | 34.5 µM (inactive)
Clc1c(C(Cl)(Cl)Cl)nsc1N1CCCCC1 | 23.5 µM (inactive) | 22.3 µM (inactive) | 16.1 µM (inactive) | 27.4 µM (inactive) | 16.5 µM (inactive) | 32.4 µM (inactive) |  | 15.1 µM (inactive) | 20.7 µM (inactive) | 24.3 µM (inactive) | 23 µM (inactive) | 20.7 µM (inactive) |  | 23.3 µM (inactive) | 18.3 µM (inactive) | 25.3 µM (inactive) | 21 µM (inactive) | 16 µM (inactive) |  | 20.9 µM (inactive)
Cc1cc2c3c(ccc4[nH]cc(c43)CN2c2ccc(NS(C)(=O)=O)cc2)n1 | 22.5 µM (inactive) | 51.9 µM (inactive) |  | 29 µM (inactive) | > 100 µM (inactive) | > 100 µM (inactive) | 37.7 µM (inactive) | 28.3 µM (inactive) | 1.83 µM (inactive) | 11.4 µM (inactive) | 19.6 µM (inactive) | > 100 µM (inactive) | 5.75 µM (inactive) | > 100 µM (inactive) | 35.5 µM (inactive) |  | > 100 µM (inactive) | > 100 µM (inactive) |  | > 100 µM (inactive)
O=C(NCCCCCCCCNC(=O)c1cccc2ccccc12)c1cccc2ccccc12 | 12.5 µM (inactive) | 12.4 µM (inactive) | > 100 µM (inactive) | 9.91 µM (inactive) | 55.1 µM (inactive) | > 100 µM (inactive) | 37.2 µM (inactive) | 8.43 µM (inactive) | 20.1 µM (inactive) | 24.4 µM (inactive) | 4.07 µM (inactive) | > 100 µM (inactive) | 9.4 µM (inactive) | > 93.1 µM (inactive) | 39.6 µM (inactive) | 4.94 µM (inactive) | 34.4 µM (inactive) | > 92.9 µM (inactive) |  | > 100 µM (inactive)
CCCCCCCCCCCCCCCCCC(=O)OCC(COC1OC(CS(=O)(=O)O)C(O)C(O)C1O)OC(=O)CCCCCCCCCCCCCCCCC (stereo not drawn) | > 100 µM (inactive) | > 100 µM (inactive) | 0.222 µM (active) | > 100 µM (inactive) | > 100 µM (inactive) | > 100 µM (inactive) |  | > 100 µM (inactive) | > 100 µM (inactive) | > 100 µM (inactive) | > 100 µM (inactive) | > 100 µM (inactive) | > 100 µM (inactive) | > 100 µM (inactive) |  | > 100 µM (inactive) | > 100 µM (inactive) | > 100 µM (inactive) | > 100 µM (inactive) | > 100 µM (inactive)
C=C[C@]1(C)CC(O)C2C(=C)C(=O)OC2[C@H]1C(=C)C=O (stereo partly drawn) | 9.04 µM (inactive) | 10.6 µM (inactive) | 1.91 µM (inactive) | 2.16 µM (inactive) | 7.23 µM (inactive) | 1.44 µM (inactive) | 3.5 µM (inactive) | 6.59 µM (inactive) | 18.2 µM (inactive) | 1.64 µM (inactive) | 15.5 µM (inactive) | 2.17 µM (inactive) | 0.966 µM (active) | 1.57 µM (inactive) | 3.27 µM (inactive) | 3.29 µM (inactive) | 2.08 µM (inactive) | 2.33 µM (inactive) | 3.15 µM (inactive) | 
CC(=O)C1C(=O)C(=O)N(c2ccc([N+](=O)[O-])cc2)C1=O (stereo not drawn) | > 100 µM (inactive) | > 100 µM (inactive) |  | > 100 µM (inactive) | > 100 µM (inactive) | > 100 µM (inactive) | 66.2 µM (inactive) | > 100 µM (inactive) | > 100 µM (inactive) | > 100 µM (inactive) | > 100 µM (inactive) | > 100 µM (inactive) | > 100 µM (inactive) | > 100 µM (inactive) | > 100 µM (inactive) | > 100 µM (inactive) | > 100 µM (inactive) | > 100 µM (inactive) |  | > 100 µM (inactive)
CC(=O)OC(C)(C)/C=C/C(=O)[C@](C)(O)[C@H]1[C@H](O)C[C@@]2(C)[C@@H]3CC=C4[C@@H](C=C(O)C(=O)C4(C)C)[C@]3(C)C(=O)C[C@]12C [CUCURBITACIN E] | 0.0203 µM (active) | 0.0348 µM (active) |  | 0.166 µM (active) | 0.0191 µM (active) | 0.0438 µM (active) | 0.0139 µM (active) | 0.0327 µM (active) | 0.057 µM (active) | 0.034 µM (active) | 0.0408 µM (active) | 0.504 µM (active) | 0.0407 µM (active) | 0.0385 µM (active) | 0.027 µM (active) | 0.023 µM (active) | 0.0375 µM (active) | 0.0406 µM (active) | 0.217 µM (active) | 0.604 µM (active)

Reference: ChEMBL document CHEMBL1201862, “PubChem BioAssay data set” (2004)
